We go through 49 compounds from patent publication US10633389B2, “CARM1 inhibitors and uses thereof” (Epizyme, Inc., priority 2013, dated 2020).

Where only a bound is given, the exact number is not on record here.

In the test the test system is asymmetric di-methyl PABP1 in RKO cells. Kind of test: RKO methylation assay, In Cell Western (ICW) for asymmetric di-methyl PABP1. The format is cell-based. The following applies: Homo sapiens, RKO, Cellular potencies, ICW PABP1me2a. The source says:
RKO adherent cells were purchased from ATCC (American Type Culture Collection), Manassas, Va., USA. DMEM/Glutamax medium, penicillin-streptomycin, heat inactivated fetal bovine serum, 0.05% trypsin and D-PBS were purchased from Life Technologies, Grand Island, N.Y., USA. Odyssey blocking buffer, 800 CW goat anti-rabbit IgG (H+L) antibody, and Licor Odyssey infrared scanner were purchased from Licor Biosciences, Lincoln, Nebr., USA. Asymmetric di-methyl PABP1 antibody was purchased from Cell Signaling Technology, Danvers, Mass., USA. Methanol was purchased from VWR, Franklin, Mass., USA. 10% Tween 20 was purchased from KPL, Inc., Gaithersburg, Md., USA. Paraformaldehyde (PFA) was purchased from EM Sciences. DRAQ5 was purchased from Biostatus Limited, Leicestershire, UK.
RKO adherent cells were maintained in growth medium (DMEM/Glutamax medium supplemented with 10% v/v heat inactivated fetal bovine serum and 100 units/mL penicillin-streptomycin) and cultured at 37° C. under 5% CO2.
Cell treatment, In Cell Western (ICW) for detection of asymmetric di-methyl PABP1 and DNA content: RKO cells were seeded in assay medium at a concentration of 30,000 cells per mL to a poly-D-lysine coated 384 well culture plate (BD Biosciences 356697) with 50 VL per well. Compound (100 nL) from a 96-well source plate was added directly to 384 well cell plate. Plates were incubated at 37° C., 5% CO2 for 48 hours. After two days of incubation, plates were brought to room temperature outside of the incubator for ten minutes and blotted on paper towels to remove cell media. Cells were fixed for 20 minutes at room temperature by adding 50 ul of 8% PFA followed by aspiration of supernatant with the Biotek EL406 plate washer. Cells were then permeabilized by addition of 50 μL of ice cold 100% methanol directly to each well and incubated for 30 min at room temperature. After 30 min, plates were transferred to a Biotek EL406 plate washer and washed 2 times with 100 μL per well of wash buffer (1×PBS). Next 60 μL per well of Odyssey blocking buffer (Odyssey Buffer with 0.1% Tween 20 (v/v)) were added to each plate and incubated 1 hour at room temperature. Blocking buffer was removed and 20 μL per well of primary antibody was added (asymmetric-methyl PABP1) diluted 1:400 in Odyssey buffer with 0.1% Tween 20 (v/v)) and plates were incubated overnight (16 hours) at 4° C. Plates were washed 5 times with 100 μL per well of wash buffer. Next 20 μL per well of secondary antibody was added (1:800 800 CW goat anti-rabbit IgG (H+L) antibody, 1:2000 DRAQ5 in Odyssey buffer with 0.1% Tween 20 (v/v)) and incubated for 1 hour at room temperature. The plates were washed 5 times with 100 μL per well wash buffer then 2 times with 100 μL per well of water. Plates were allowed to dry at room temperature then imaged on the Licor Odyssey machine which measures integrated intensity at 700 nm and 800 nm wavelengths. Both 700 and 800 channels were scanned.
First, the ratio for each well was determined by:
Each plate included fourteen control wells of DMSO only treatment (minimum inhibition) as well as fourteen control wells for maximum inhibition treated with 20 μM of a reference compound. The average of the ratio values for each control type was calculated and used to determine the percent […] for each test well in the plate. Reference compound was serially diluted three-fold in DMSO for a total of nine test concentrations, beginning at 20 μM.
Percent inhibition was determined and IC50 curves were generated using triplicate wells per concentration of compound. […]
Usually IC50 stands for the concentration that gives 50% inhibition. High values mean weaker potency, low ones greater potency. In the case of `CNC[C@@H](O)COc1cccc(-c2nc(NC3CCN(C(=O)OC)CC3)cc(-c3c(C)nnn3C)n2)c1` [Example 278-3], the IC50 lay in the range of 10 to 20 µM. As for `CNCC(O)COc1cccc(-c2nc(NCC3(N4CCC4)CCOCC3)c(C)c(-c3c(C)noc3C)n2)c1` (stereo not shown) [Example 301-1a], the figure is 5 to 10 µM; as for `CNC[C@@H](O)COc1ccc(Cl)c(-c2nc(-c3c(C)noc3C)c(C)c(N3CCC4(C3)CN(C3CC3)C4)n2)c1` [Example 178-3], below 5 µM; as for `CNCC(O)COc1cccc(-c2nc(-c3c(C)noc3C)c(C)c(N3CCN(C(=O)OCCF)CC3)n2)c1` (stereo not shown) [Example 121-1a], below 5 µM.

As for `CNCC(O)COc1cccc(-c2nc(N[C@H]3CC[C@H](O)C3)c(C)c(-c3c(C)noc3C)n2)c1` (stereo partly shown) [Example 135-1a], the IC50 was below 5 µM. With `CNCC(O)COc1cccc(-c2nc(NC3CC3)c(C)c(-c3c(C)noc3C)n2)c1` (stereo not shown) [Example 293-1a] the figure was below 5 µM. With `CNCC(O)COc1cccc(-c2nc(OCC3CCN(CC(F)F)CC3)c(C)c(-c3c(C)noc3C)n2)c1` (stereo not shown) [Example 288-1a] the figure was below 5 µM; with `CCO[C@@H]1CCC[C@H]1Nc1nc(-c2cc(OC[C@H](O)CNC)ccc2F)nc(-c2c(C)noc2C)c1C` [Example 191-3], below 5 µM. With `CNCC(O)COc1cccc(-c2nc(NC3CCOC3)c(C)c(N3CC4CC(C3)N4)n2)c1` (stereo not shown) [Example 452-1a] the figure was 10 to 20 µM; with `CNC[C@@H](O)COc1ccc(F)c(-c2nc(-c3c(C)noc3C)c(C)c(N3Cc4cccc(F)c4C3)n2)c1` [Example 266-3], below 5 µM. Take `CCOC(=O)N1CCC(Nc2nc(-c3cc(OC[C@H](O)CNC)ccc3Cl)nc(-c3c(C)noc3C)c2C)CC1` [Example 88-3]: the IC50 is below 5 µM. With `CNCC(O)COc1cccc(-c2nc(NCC3(N(C)C)CCOCC3)c(C)c(-c3c(C)noc3C)n2)c1` (stereo not shown) [Example 140-1a] the figure was below 5 µM; with `CNCC(O)COc1cccc(-c2nc(NC3CCOCC3)cc(-c3ccc(OC)c(OC)c3)n2)c1` (stereo not shown) [Example 658-1a], at least 20 µM; with `CNC[C@@H](O)COc1ccc(Cl)c(-c2nc(-c3c(C)noc3C)c(C)c(N3Cc4cnc(C5CC5)nc4C3)n2)c1` [Example 259-3], below 5 µM. With `CNC[C@@H](O)COc1ccc(Cl)c(-c2nc(-c3c(C)noc3C)c(C)c(N3CCC4(CCCO4)C3)n2)c1` (stereo partly shown) [Example 289-3] the figure was below 5 µM; with `CNCC(O)COc1cccc(-c2nc(-c3c(C)noc3C)cc(N3CCN(CCF)[C@H](C)C3)n2)c1` (stereo partly shown) [Example 145-1a], 5 to 10 µM. As for `CNCC(O)COc1cccc(-c2nc(N[C@@H]3CC[C@H](O)C3)c(C)c(-c3c(C)noc3C)n2)c1` (stereo partly shown) [Example 163-1a], the figure is below 5 µM; as for `CCOC(=O)N1CCOC[C@@H]1CNc1nc(-c2cc(OC[C@H](O)CNC)ccc2F)nc(-c2c(C)noc2C)c1C` [Example 62-3], below 5 µM; as for `CCOC(=O)N1CCC(Nc2nc(-c3cc(OC[C@@H](O)CNC)ccc3Cl)nc(-c3c(C)noc3C)c2C)CC1` [Example 105-3], below 5 µM. Compound `CNCC(O)COc1cccc(-c2nc(N[C@H]3CC[C@@H](O)CC3)cc(-c3c(C)noc3C)n2)c1` (stereo partly shown) [Example 33-1a] returned an IC50 of 5 to 10 µM. `CNC[C@@H](O)COc1ccc(Cl)c(-c2nc(-c3c(C)noc3C)c(Cl)c(N3Cc4nc(C)sc4C3)n2)c1` [Example 243-3] had an IC50 below 5 µM. As for `CNC[C@@H](O)COc1ccc(Cl)c(-c2nc(NC[C@@H]3CCCO3)c(C)c(-c3c(C)noc3C)n2)c1` [Example 131-3], the figure is below 5 µM; as for `CNC[C@@H](O)COc1ccc(Cl)c(-c2nc(N[C@H]3CCN(C4CC4)C[C@H]3F)c(C)c(-c3c(C)noc3C)n2)c1` [Example 44-3], below 5 µM. As for `CNC[C@@H](O)COc1ccc(Cl)c(-c2nc(-c3c(C)noc3C)c(C)c(N3Cc4cn(S(C)(=O)=O)nc4C3)n2)c1` [Example 293-3], the figure is below 5 µM; as for `CNCC(O)COc1cccc(-c2nc(-c3c(C)noc3C)c(C)c(N3C[C@H]4CC[C@@H](C3)N4C)n2)c1` (stereo partly shown) [Example 116-1a], 5 to 10 µM. With `CNCC(O)COc1cccc(-c2nc(-c3cnc4ccnn4c3)cc(N(C)C3CCOCC3)n2)c1` (stereo not shown) [Example 564-1a] the figure was 10 to 20 µM. In the case of `CCN1CCN(c2cc(-c3c(C)noc3C)nc(-c3cccc(OCC(O)CNC)c3)n2)CC1` (stereo not shown) [Example 20-1a], the IC50 lay in the range of 5 to 10 µM.

Compound `CC[C@H]1CN(c2nc(-c3cccc(OCC(O)CNC)c3)nc(-c3c(C)noc3C)c2C)CCN1S(=O)(=O)CC` (stereo partly shown) [Example 154-1a] had a half-maximal inhibitory concentration (IC50) below 5 µM. With `CNCC(O)COc1cc(Cl)cc(-c2nc(-c3ccnc(N(C)C)c3)cc(N(C)C3CCOCC3)n2)c1` (stereo not shown) [Example 609-1a] the figure was 10 to 20 µM; with `CNC[C@@H](O)COc1cccc(-c2nc(-c3c[nH]c4ncncc34)c(C)c(N(C)C3CCOCC3)n2)c1` [Example 526-1a], 5 to 10 µM. With `CNCC(O)COc1cccc(-c2nc(NC3CCN(C(=O)N(C)C)CC3)c(C)c(-c3c(C)noc3C)n2)c1` (stereo not shown) [Example 244-1a] the figure was below 5 µM; with `CNC[C@H](O)COc1ccc(F)c(-c2nc(NC3CCOC(C)C3)c(C)c(-c3c(C)noc3C)n2)c1` (stereo partly shown) [Example 73-3], below 5 µM; with `CNCC(O)COc1cccc(-c2nc(-c3scnc3C)cc(N(C)C3CCOCC3)n2)c1` (stereo not shown) [Example 495-1a], below 5 µM. As for `CNCC(O)COc1cccc(-c2nc(N[C@@H]3CCOC3)c(C)c(N3Cc4nc(C)sc4C3)n2)c1` (stereo partly shown) [Example 465-1a], the figure is below 5 µM; as for `CNCC(O)COc1cccc(-c2nc(N[C@H]3C[C@H](O)C3)c(C)c(-c3c(C)noc3C)n2)c1` (stereo partly shown) [Example 254-1a], below 5 µM. Consider `CCO[C@@H]1CCC[C@@H]1Nc1nc(-c2cc(OC[C@H](O)CNC)ccc2Cl)nc(-c2c(C)noc2C)c1C` [Example 253-3], for which the IC50 was below 5 µM. With `CNCC(O)COc1cccc(-c2nc(N[C@@H]3CCOC3)c(C)c(N3Cc4ccncc4C3)n2)c1` (stereo partly shown) [Example 427-1a] the figure was below 5 µM.

The compound `CNCC(O)COc1cccc(-c2nc(N[C@H]3CCC[C@H]3O)c(C)c(-c3c(C)noc3C)n2)c1` (stereo partly shown) [Example 218-1a] came in with a half-maximal inhibitory concentration (IC50) below 5 µM. As for `CNCC(O)COc1cccc(-c2nc(N[C@@H]3CCOC3)c(C)c(N3CCN(CC(F)F)[C@H](C)C3)n2)c1` (stereo partly shown) [Example 471-1a], the figure is below 5 µM. `CNCC(O)COc1cccc(-c2nc(NCCCCl)c(C)c(N[C@@H]3CCOC3)n2)c1` (stereo partly shown) [Example 366-1a] gave a half-inhibitory concentration (IC50) of 10 to 20 µM.

The compound `CNCC(O)COc1cccc(-c2nc(NC3CCCN(CC(F)F)C3)c(C)c(-c3c(C)noc3C)n2)c1` (stereo not shown) [Example 203-1a] came in with an IC50 below 5 µM.

`CNCC(O)COc1cccc(-c2nc(-c3c(C)noc3C)cc(N3CCN(S(C)(=O)=O)[C@H](C)C3)n2)c1` (stereo partly shown) [Example 147-1a] registered an IC50 below 5 µM. With `CNCC(O)COc1cccc(-c2nc(NC3(C)CCOCC3)cc(-c3c(C)noc3C)n2)c1` (stereo not shown) [Example 85-1a] the figure was below 5 µM. With `CNC[C@H](O)COc1ccc(F)c(-c2nc(NC3CCOCC3)c(C)c(-c3c(C)noc3C)n2)c1` [Example 72-3] the figure was below 5 µM. As for `CNCC(O)COc1cccc(-c2nc(N[C@@H]3COC(=O)C3)c(C)c(-c3c(C)noc3C)n2)c1` (stereo partly shown) [Example 268-1a], the IC50 fell in the range of 10 to 20 µM. As for `CNC[C@H](O)COc1ccc(Cl)c(-c2nc(-c3c(C)noc3C)cc(N3CC4(CCN(C5CC5)CC4)C3)n2)c1` [Example 69-3], the figure is below 5 µM; as for `CCS(=O)(=O)N1CCC(Nc2nc(-c3cccc(OCC(O)CNC)c3)nc(-c3c(C)nsc3C)c2C)CC1` (stereo not shown) [Example 70-3], below 5 µM; as for `CNC[C@@H](O)COc1ccc(Cl)c(-c2nc(-c3c(C)noc3C)c(C)c(N3CC4CC4C3)n2)c1` (stereo partly shown) [Example 235-3], below 5 µM. With `CNCC(O)COc1cccc(-c2nc(NC3CCOC3)c(C)c(N3CCN4C(=O)OC[C@@H]4C3)n2)c1` (stereo partly shown) [Example 454-1a] the figure was 5 to 10 µM.
